Test results from US20040132817A1, “Use of an histone deacetylase inhibitor for the treatment of diseases associated with an hpv infection” (priority 2001, published 2004).

Key:
p21^CIP1 mRNA = assay: Northern blot of p21^CIP1 in "1321" keratinocytes; type: cell-based, human; settings: "1321" cells, six hours following NaB addition
Description: Keratinocytes immortalized with HPV16 E6/E7 either under control of (A) the homologues viral upstream regulatory region (,1637″) or (B) of the β-actin promoter (,1321″) were incubated with NaB for various periods of time. 5 μg of RNA was separated in 1% agarose gels. The filters were hybridized with probes specific for HPV16, p21^CIP1 (=p21), β-actin and GAPDH. The positions of the 28S and 18S ribosomal RNA are indicated. (Contr.): untreated cells.
Total cellular RNA was extracted according to the guanidinium-thiocyanate procedure (Chomczynski and Sacchi, Anal. Biochem. 162 (1987), 156-159). Approximately 5 μg RNA were separated on 1% agarose gels in the presence of ethidium bromide under non-denaturing conditions and transferred to GeneScreen Plus membranes (DuPont, Bad Homburg, Deutschland). The filters were hybridized under stringent conditions with specific probes, which were labeled with ^32p-dCTP by random priming (Feinberg and Vogelstein, Anal. Biochem. 137 (1984), 266-267).

HeLa cells = assay: Flow-cytometric cell cycle analysis of HeLa cells; type: cell-based, human; settings: 6 mM sodium butyrate, 16 hours
Description: “Contr.”: untreated control. The different phases of the cell cycle are indicated (G1, S, G2, respectively). Lower part: quantification of the number of cells during the cell cycle (means of three independent experiments).
Cells were harvested by trypsinisation, washed twice with phosphate-buffered saline (PBS) and fixed overnight with 70% ethanol. The cells were resuspended in PBS containing 40 μg/ml of DNase-free RNase A and 50 μg/ml propidium iodide and cell cycle distribution was measured in a fluorescence-activated cell sorter (FACSort) from Becton Dickinson, San Jose, USA. DNA content was quantified by using the “Cell Quest” software (Becton Dickinson, San Jose, USA).
In order to elucidate the molecular effects of histone deacetylase inhibition in the context of HPV16/18-induced carcinogenesis, the HPV18-positive cervical carcinoma cell line HeLa as well as primary human foreskin keratinocytes, which were separately immortalized with amphotropic retroviruses carrying the open reading frames of HPV16 E6, E7 or E6/E7 were used in the experiments of the present invention. In order to assess the specific impact of histone deacetylase inhibition on cell proliferation, flow cytometric analysis of cellular DNA content was carried out (FIG. 1). […]

## CCCC(=O)[O-].[Na+] [sodium butyrate]
p21^CIP1 mRNA
  p21CIP1 expression: augmented
HeLa cells; untreated 24.9%
  number of cells in S-phase: 8.5%
HeLa cells; untreated 56.8%
  G1 fraction: 75.7%
